From article PMC12445698 (2025) come the findings set out here.

A word on the Kd: it is the free concentration of one partner at which half of the binding sites on the other are occupied at equilibrium, for simple one-to-one binding. The low end stands for higher affinity, the high end for lower affinity.

What all share (test): ITC
What all share (conditions): 50 mM KCl, 10 mM MgCl2; 40 mM HEPES pH 7.4

Assay [1] concerns I39C (RNA, riboswitch) GGGUUGUAUAAGCUCGUUAAUUUGGAAUGAGCGUAUCUACCAGGCAACCGUAAAUUGCCCCAGGCUACAAUC
Assay [2] concerns U38G-I39C (RNA, riboswitch) GGGUUGUAUAAGCUCGUUAAUUUGGAAUGAGCGUAUCGACCAGGCAACCGUAAAUUGCCCCAGGCUACAAUC
Assay [3] deals with U38C (RNA, riboswitch) GGGUUGUAUAAGCUCGUUAAUUUGGAAUGAGCGUAUCCACAGGCAACCGUAAAUUGCCCCAGGCUACAAUC

With `O=c1[nH]c(=O)c2[nH]cnc2[nH]1`, the Kd in assay [1] came out at 9.79 µM; in assay [2], 14.6 µM.
For the molecule `Nc1nc2[nH]cnc2c(=O)[nH]1`, the Kd in assay [1] came to 0.0017 µM; in assay [3] it was 1.3 µM.
